Measurements as given in paper PMC4454674, “Functional Coupling of Duplex Translocation to DNA Cleavage in a Type I Restriction Enzyme” (PLoS ONE, 2015).

Target: T1, EcoR124I (HsdR reconstituted with HsdS-HsdM2 methylase) (Escherichia coli, UniProt P10486)
T1 construct: holoenzyme reconstituted from purified HsdR (pTrcR124) and EcoR124I methylase HsdS-HsdM2 (pJS4M, JM109(DE3)), on plasmid DNA with one site; with Type I restriction enzyme EcoR124I/EcoR124II methylase subunit; Type I restriction enzyme EcoR124I specificity subunit
T1 sequence (P10486 1-1038): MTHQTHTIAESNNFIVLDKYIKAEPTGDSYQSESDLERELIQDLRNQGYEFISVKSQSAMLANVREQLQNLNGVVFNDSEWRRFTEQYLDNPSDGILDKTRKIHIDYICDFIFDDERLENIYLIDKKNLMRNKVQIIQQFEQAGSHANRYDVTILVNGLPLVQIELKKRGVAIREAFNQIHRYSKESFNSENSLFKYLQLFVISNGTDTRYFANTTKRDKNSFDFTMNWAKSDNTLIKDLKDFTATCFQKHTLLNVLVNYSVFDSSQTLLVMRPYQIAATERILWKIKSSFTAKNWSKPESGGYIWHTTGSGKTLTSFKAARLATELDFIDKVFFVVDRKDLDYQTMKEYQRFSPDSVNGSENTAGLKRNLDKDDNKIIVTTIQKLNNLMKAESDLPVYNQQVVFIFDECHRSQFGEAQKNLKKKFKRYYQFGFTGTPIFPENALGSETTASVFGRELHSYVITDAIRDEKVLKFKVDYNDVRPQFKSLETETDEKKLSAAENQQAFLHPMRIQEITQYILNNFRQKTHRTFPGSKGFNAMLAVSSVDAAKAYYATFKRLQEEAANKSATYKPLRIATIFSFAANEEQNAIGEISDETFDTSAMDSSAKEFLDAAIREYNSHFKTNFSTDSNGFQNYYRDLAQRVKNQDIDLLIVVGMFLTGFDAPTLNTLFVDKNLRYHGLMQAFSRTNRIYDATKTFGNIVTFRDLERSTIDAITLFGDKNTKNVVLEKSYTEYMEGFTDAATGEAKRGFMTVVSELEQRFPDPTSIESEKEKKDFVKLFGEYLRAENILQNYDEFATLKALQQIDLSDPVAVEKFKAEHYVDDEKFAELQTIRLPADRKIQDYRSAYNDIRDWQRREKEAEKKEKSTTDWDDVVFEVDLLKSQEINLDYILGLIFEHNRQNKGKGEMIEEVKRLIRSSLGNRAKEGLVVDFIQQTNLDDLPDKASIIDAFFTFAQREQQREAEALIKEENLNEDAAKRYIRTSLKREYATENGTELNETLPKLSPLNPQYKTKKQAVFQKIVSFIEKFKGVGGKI
T1 sequence (P10485 1-404 partner): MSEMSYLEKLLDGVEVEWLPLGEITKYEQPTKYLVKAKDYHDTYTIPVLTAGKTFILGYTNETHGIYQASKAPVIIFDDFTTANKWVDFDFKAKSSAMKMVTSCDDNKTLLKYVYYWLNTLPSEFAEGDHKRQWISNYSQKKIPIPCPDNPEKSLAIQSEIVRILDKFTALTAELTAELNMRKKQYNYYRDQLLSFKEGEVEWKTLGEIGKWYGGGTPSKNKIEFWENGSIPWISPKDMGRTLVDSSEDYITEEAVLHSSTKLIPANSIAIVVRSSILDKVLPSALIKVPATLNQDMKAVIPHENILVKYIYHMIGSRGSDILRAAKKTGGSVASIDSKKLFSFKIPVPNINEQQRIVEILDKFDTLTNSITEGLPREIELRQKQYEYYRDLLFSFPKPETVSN
T1 sequence (P10484 1-520 partner): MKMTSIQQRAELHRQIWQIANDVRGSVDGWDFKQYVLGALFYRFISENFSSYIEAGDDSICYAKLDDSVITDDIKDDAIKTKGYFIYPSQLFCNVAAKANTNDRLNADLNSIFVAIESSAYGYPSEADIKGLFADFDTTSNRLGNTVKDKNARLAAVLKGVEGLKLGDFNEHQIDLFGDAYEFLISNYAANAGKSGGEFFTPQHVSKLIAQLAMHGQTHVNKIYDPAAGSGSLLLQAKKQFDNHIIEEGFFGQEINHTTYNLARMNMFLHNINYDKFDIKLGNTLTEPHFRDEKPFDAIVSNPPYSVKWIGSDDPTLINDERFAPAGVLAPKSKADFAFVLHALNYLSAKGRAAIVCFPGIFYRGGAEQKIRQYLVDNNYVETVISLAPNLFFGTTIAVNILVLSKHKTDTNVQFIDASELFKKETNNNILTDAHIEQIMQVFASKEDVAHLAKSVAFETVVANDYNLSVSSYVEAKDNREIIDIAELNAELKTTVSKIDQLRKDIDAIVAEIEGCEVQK
Test: DNA-dependent ATPase, gamma-32P-ATP with TLC
Assay type: biochemical
Conditions: 2 mM ATP; 15 nM methylase, 90 nM HsdR, 90 nM plasmid DNA; 10 mM MgCl2; pH 7.9; 37 C; turnover only; gamma-32P-ATP tracer

## Nc1ncnc2c1ncn2[C@@H]1O[C@H](COP(=O)(O)OP(=O)(O)OP(=O)(O)O)[C@@H](O)[C@H]1O [ATP]
  DNA-dependent ATPase, gamma-32P-ATP with TLC: The results for the WT enzyme reproduce its previously reported ATPase activity
